Laboratory results: patent US9920010B2, “CXCR7 receptor modulators” (IDORSIA PHARMACEUTICALS LTD, priority 2013, dated 2018)

Target: T1, CXCR7 (Homo sapiens, UniProt P25106)
T1 construct: host or cells: CHO-K1 (PathHunter CHO-K1 CXCR7 b-arrestin cell line, stably transfected)
Test: PathHunter CHO-K1 CXCR7 b-arrestin recruitment assay (CXCR7 agonistic activity)
Type: cell-based
Details: PathHunter CHO-K1 CXCR7 b-arrestin cell line
Procedure, shortened: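 Stable CHO-K1 line with C-terminally ProLink-tagged CXCR7 and β-arrestin 2–EA fusion; β-arrestin recruitment restores β-gal activity, read by chemiluminescence after 1 h RT detection. Cells seeded 24 h, starved in OPTIMEM 3–4 h, exposed to compounds 90 min at 37 °C in HBSS/HEPES/BSA. Geometric-mean EC50 from repeated measurements.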

T1 sequence (P25106 whole entry): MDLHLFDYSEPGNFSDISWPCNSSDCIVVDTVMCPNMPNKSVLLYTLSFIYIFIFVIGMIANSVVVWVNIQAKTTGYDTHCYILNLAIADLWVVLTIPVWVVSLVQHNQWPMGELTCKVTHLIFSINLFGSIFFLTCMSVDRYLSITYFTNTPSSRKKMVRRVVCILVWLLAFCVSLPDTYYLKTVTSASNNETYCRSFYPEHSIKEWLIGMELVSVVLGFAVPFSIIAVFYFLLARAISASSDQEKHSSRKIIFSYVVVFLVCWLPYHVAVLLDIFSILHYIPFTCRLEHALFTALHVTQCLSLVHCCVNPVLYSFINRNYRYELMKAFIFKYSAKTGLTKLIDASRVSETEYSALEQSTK
T1 sequence (P32121 whole entry partner): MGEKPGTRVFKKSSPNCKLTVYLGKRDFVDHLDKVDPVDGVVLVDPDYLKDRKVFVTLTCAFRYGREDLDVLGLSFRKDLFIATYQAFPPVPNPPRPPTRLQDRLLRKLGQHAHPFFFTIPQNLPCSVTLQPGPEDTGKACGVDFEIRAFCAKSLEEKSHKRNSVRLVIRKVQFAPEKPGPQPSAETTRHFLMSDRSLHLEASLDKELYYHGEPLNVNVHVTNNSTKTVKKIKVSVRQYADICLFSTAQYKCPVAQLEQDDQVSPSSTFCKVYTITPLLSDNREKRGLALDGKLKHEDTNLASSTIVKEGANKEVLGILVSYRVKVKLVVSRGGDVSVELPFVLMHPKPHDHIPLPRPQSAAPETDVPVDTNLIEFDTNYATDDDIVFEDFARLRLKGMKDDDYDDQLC

| EC50 [nM] | SMILES |
| --- | --- |
| 38 | CS(=O)(=O)CCN(Cc1ccccc1C(F)(F)F)C(=O)CNc1cccc2c1CCN(CC1CC1)C2 [Example 229, 2-(2-Cyclopropylmethyl-1,2,3,4-tetrahydro-isoquinolin-5-ylamino)-N-(2-methanesulfonyl-ethyl)-N-(2-trifluoromethyl-benzyl)-acetamide] |
| 3 | C=CCN(C)CCN(Cc1ccccc1C(F)(F)F)C(=O)CNc1cccc2c1CCN(CC1CC1)C2 [Example 245, N-[2-(Allyl-methyl-amino)-ethyl]-2-(2-cyclopropylmethyl-1,2,3,4-tetrahydro-isoquinolin-5-ylamino)-N-(2-trifluoromethyl-benzyl)-acetamide] |
| 2 | O=C(CNc1cccc2c1CCN(CC1CC1)C2)N(CCN1CCCC1)Cc1ccccc1Cl [Example 43, N-(2-Chloro-benzyl)-2-(2-cyclopropylmethyl-1,2,3,4-tetrahydro-isoquinolin-5-ylamino)-N-(2-pyrrolidin-1-yl-ethyl)-acetamide] |
| 9 | O=C(CNc1cccc2c1CCN(CC1CC1)C2)N(Cc1ccccc1C(F)(F)F)C1CCNC1 (racemic) [compound 381] |
| 43 | O=C(CNc1cccc2c1CCN(CC1CC1)C2)N(CCN1CCCC(F)(F)C1)Cc1ccccc1C(F)(F)F [Example 281, 2-(2-Cyclopropylmethyl-1,2,3,4-tetrahydro-isoquinolin-5-ylamino)-N-[2-(3,3-difluoro-piperidin-1-yl)-ethyl]-N-(2-trifluoromethyl-benzyl)-acetamide] |
| 1 | CN1CCCC(N(Cc2ccccc2C(F)(F)F)C(=O)CNc2cccc3c2CCN(CC2CC2)C3)C1 (racemic) [compound 136] |
| 2 | O=C(CNc1cccc2c1CCN(CC1CC1)C2)N(CCN1CCCCC1)Cc1ccccc1C(F)(F)F [Example 217, 2-(2-Cyclopropylmethyl-1,2,3,4-tetrahydro-isoquinolin-5-ylamino)-N-(2-piperidin-1-yl-ethyl)-N-(2-trifluoromethyl-benzyl)-acetamide] |
| 7 | CCN1CCc2cccc(NCC(=O)N(CCN3CCCC3)Cc3ccccc3C(F)(F)F)c2C1 [compound 489, 2-(2-Ethyl-1,2,3,4-tetrahydro-isoquinolin-8-ylamino)-N-(2-pyrrolidin-1-yl-ethyl)-N-(2-trifluoromethyl-benzyl)-acetamide] |
| 272 | CC(C)(C)OC(=O)N1[C@H](CN(Cc2ccccc2C(F)(F)F)C(=O)CNc2cccc3c2CCN(CC2CC2)C3)COC1(C)C [Example 84, (R)-4-{[[2-(2-Cyclopropylmethyl-1,2,3,4-tetrahydro-isoquinolin-5-ylamino)-acetyl]-(2-trifluoromethyl-benzyl)-amino]-methyl}-2,2-dimethyl-oxazolidine-3-carboxylic acid tert-butyl ester] |
| 79 | O=C(CNc1cccc2c1CN(CC1CC1)CC2)N(CCN1CC(F)(F)C1)Cc1ccccc1C(F)(F)F [compound 484] |
| 52 | O=C(CNc1cccc2c1CCN(CC1CC1)C2)N(CCC(F)(F)F)Cc1ccccc1C(F)(F)F [Example 224, 2-(2-Cyclopropylmethyl-1,2,3,4-tetrahydro-isoquinolin-5-ylamino)-N-(2-trifluoromethyl-benzyl)-N-(3,3,3-trifluoro-propyl)-acetamide] |
| 43 | CC(C)(C)CCN(Cc1ncccc1C(F)(F)F)C(=O)CNc1cccc2c1CCN(CC1CC1)C2 [Example 275, 2-(2-Cyclopropylmethyl-1,2,3,4-tetrahydro-isoquinolin-5-ylamino)-N-(3,3-dimethyl-butyl)-N-(3-trifluoromethyl-pyridin-2-ylmethyl)-acetamide] |
| 26 | CN(C)CCN(Cc1ccccc1C(F)(F)F)C(=O)CNc1cccc2c1CN(CC(C)(C)C)CC2 [compound 563, N-(2-Dimethylamino-ethyl)-2-[2-(2,2-dimethyl-propyl)-1,2,3,4-tetrahydro-isoquinolin-8-ylamino]-N-(2-trifluoromethyl-benzyl)-acetamide] |

Further lines, the molecule ahead of its results:

| SMILES | EC50 [nM] |
| --- | --- |
| CCN1CCc2cccc(NCC(=O)N(CCN(C)C)Cc3cncc(Cl)c3)c2C1 [compound 533] | 359 |
| CN(C)CCN(Cc1ccc(OC(F)(F)F)cc1)C(=O)CNc1cccc2c1CN(CC1CC1)CC2 [compound 473] | 102 |
| CCC(=O)N1CCc2c(cccc2NCC(=O)N(CCNC)Cc2ncccc2C(F)(F)F)C1 [compound 409, N-(2-Methylamino-ethyl)-2-(2-propionyl-1,2,3,4-tetrahydro-isoquinolin-5-ylamino)-N-(3-trifluoromethyl-pyridin-2-ylmethyl)-acetamide] | 8 |
| CN(CCN(Cc1ncccc1C(F)(F)F)C(=O)CNc1cccc2c1CCN(CC1CC1)C2)CC(F)(F)F [Example 280, 2-(2-Cyclopropylmethyl-1,2,3,4-tetrahydro-isoquinolin-5-ylamino)-N-{2-[methyl-(2,2,2-trifluoro-ethyl)-amino]-ethyl}-N-(3-trifluoromethyl-pyridin-2-ylmethyl)-acetamide] | 28 |
| NC(=O)CCN(Cc1ccccc1)C(=O)CNc1cccc2c1CCN(CC1CC1)C2 [Example 68, 3-{Benzyl-[2-(2-cyclopropylmethyl-1,2,3,4-tetrahydro-isoquinolin-5-ylamino)-acetyl]-amino}-propionamide] | 330 |
| C=CCN1CCc2cccc(NCC(=O)N(CCN(C)C)Cc3ccccc3OC(F)(F)F)c2C1 [compound 464, 2-(2-Allyl-1,2,3,4-tetrahydro-isoquinolin-8-ylamino)-N-(2-dimethylamino-ethyl)-N-(2-trifluoromethoxy-benzyl)-acetamide] | 36 |
| COCCN1CCc2c(CCC(=O)N(CCN(C)C(=O)OC(C)(C)C)Cc3ccccc3C(F)(F)F)cccc2C1 [Example 337, {2-[{3-[2-(2-Methoxy-ethyl)-1,2,3,4-tetrahydro-isoquinolin-5-yl]-propionyl}-(2-trifluoromethyl-benzyl)-amino]-ethyl}-methyl-carbamic acid tert-butyl ester] | 429 |
| CN(C)CCN(Cc1ccccc1)C(=O)CNc1cccc2c1CN(C(=O)OC(C)(C)C)CC2 [Example 181, 8-({[Benzyl-(2-dimethylamino-ethyl)-carbamoyl]-methyl}-amino)-3,4-dihydro-1H-isoquinoline-2-carboxylic acid tert-butyl ester] | 117 |
| CNCCN(Cc1ncccc1C(F)(F)F)C(=O)CNc1cccc2c1CCN(C(C)=O)C2 [compound 408, 2-(2-Acetyl-1,2,3,4-tetrahydro-isoquinolin-5-ylamino)-N-(2-methylamino-ethyl)-N-(3-trifluoromethyl-pyridin-2-ylmethyl)-acetamide] | 10 |
| C#CCOC(=O)N1CCc2c(cccc2NCC(=O)N(CCNC)Cc2ccccc2C(F)(F)F)C1 [compound 396, 5-({[(2-Methylamino-ethyl)-(2-trifluoromethyl-benzyl)-carbamoyl]-methyl}-amino)-3,4-dihydro-1H-isoquinoline-2-carboxylic acid prop-2-ynyl ester] | 38 |
| CNCCN(Cc1ncccc1C(F)(F)F)C(=O)CNc1cccc2c1CCN(C(=O)CC(C)(C)C)C2 [compound 418] | 148 |
| CCN1CCc2cccc(/C=C/C(=O)N(CCN(C)C)Cc3ccccc3C(F)(F)F)c2C1 [compound 550, (E)-N-(2-Dimethylamino-ethyl)-3-(2-ethyl-1,2,3,4-tetrahydro-isoquinolin-8-yl)-N-(2-trifluoromethyl-benzyl)-acrylamide] | 2 |
| COCCN1CCc2c(CCC(=O)N(CCN(C)CCF)Cc3ccccc3C(F)(F)F)cccc2C1 [Example 342, N-{2-[(2-Fluoro-ethyl)-methyl-amino]-ethyl}-3-[2-(2-methoxy-ethyl)-1,2,3,4-tetrahydro-isoquinolin-5-yl]-N-(2-trifluoromethyl-benzyl)-propionamide] | 110 |
| CCN1CCc2cccc(NCC(=O)N(CCN(C)C)Cc3ncccc3C)c2C1 [compound 525, N-(2-Dimethylamino-ethyl)-2-(2-ethyl-1,2,3,4-tetrahydro-isoquinolin-8-ylamino)-N-(3-methyl-pyridin-2-ylmethyl)-acetamide] | 41 |
| CCN1CCc2cccc(OC3(C(=O)N(CCN(C)C)Cc4ccccc4C(F)(F)F)CCC3)c2C1 [compound 549] | 257 |
| CNCCN(Cc1ncccc1C(F)(F)F)C(=O)CNc1cccc2c1CCN(C(=O)C(C)(C)C)C2 [compound 415] | 178 |
| CN(C)CCN(Cc1ncccc1C(F)(F)F)C(=O)CNc1cccc2c1CCN(C1COC1)C2 [Example 367, N-(2-Dimethylamino-ethyl)-2-(2-oxetan-3-yl-1,2,3,4-tetrahydro-isoquinolin-5-ylamino)-N-(3-trifluoromethyl-pyridin-2-ylmethyl)-acetamide] | 115 |
| CCN1CCc2cccc(NCC(=O)N(Cc3ccccc3C(F)(F)F)C(C)c3ccn(CC)n3)c2C1 (racemic) [compound 521] | 269 |
| CCN1CCc2cccc(NCC(=O)N(CCN(C)C)Cc3nccs3)c2C1 [compound 541] | 175 |
| CNCCN(Cc1ncccc1C(F)(F)F)C(=O)CNc1cccc2c1CCN(C(=O)NC1CCCCC1)C2 [compound 433] | 166 |
| O=C(CNc1cccc2c1CCN(CC1CC1)C2)N(Cc1ccccc1)C1CCNC1 (racemic) [Example 178, rac-N-Benzyl-2-(2-cyclopropylmethyl-1,2,3,4-tetrahydro-isoquinolin-5-ylamino)-N-pyrrolidin-3-yl-acetamide] | 25 |
| CCC(=O)N1CCc2c(cccc2NCC(=O)N(CCCN(C)C)Cc2ccccc2)C1 [Example 13, N-Benzyl-N-(3-dimethylamino-propyl)-2-(2-propionyl-1,2,3,4-tetrahydro-isoquinolin-5-ylamino)-acetamide] | 37 |
| CCCOC(=O)N1CCc2c(cccc2NCC(=O)N(CCNC)Cc2ncccc2C(F)(F)F)C1 [compound 423] | 79 |
| CCC(=O)N1CCc2c(cccc2NCC(=O)N(CCN(C)C)Cc2cccc(C(F)(F)F)c2)C1 [Example 33, N-(2-Dimethylamino-ethyl)-2-(2-propionyl-1,2,3,4-tetrahydro-isoquinolin-5-ylamino)-N-(3-trifluoromethyl-benzyl)-acetamide] | 16 |
